Test results reported in ChEMBL document CHEMBL2346544, “Design and synthesis of biotin- or alkyne-conjugated photoaffinity probes for studying the target molecules of PD 404182” (Bioorg Med Chem, 2013).

system: Human immunodeficiency virus 1; test: Antiviral activity against HIV1 3B infected in HeLa cells expressing CD4/CCR5/beta-Gal after 48 hrs by MAGI assay; type: functional, organism-based; settings: Human immunodeficiency virus 1, 3B

SMILES | EC50 [µM]
C#CCOCc1ccc(C(=O)c2ccc(-c3ccc4c(c3)SC(=N)N3CCCN=C43)cc2)cc1 | 0.64
N=C1Sc2cc(Br)ccc2C2=NCC3(CCN(C(=O)OCc4ccc(C(=O)c5ccc(COC(=O)NCCOCCOCCOCCNC(=O)CCCC[C@@H]6SC[C@@H]7NC(=O)N[C@@H]76)cc5)cc4)CC3)CN12 | 5.11
N=C1Sc2cc(-c3ccc(C(=O)c4ccc(COC(=O)NCCOCCOCCOCCNC(=O)CCCC[C@@H]5SC[C@@H]6NC(=O)N[C@@H]65)cc4)cc3)ccc2C2=NCCCN12 | 6.87
